Where a name gives a salt, the structure may show the parent alone. Read-outs that look alike come from different tables or passages of the source.
Tests used:
[1] = tested on: RAF dimers in HCT-116 cells; assay: HCT-116 AlphaLISA SureFire pERK1/2 cellular assay (dimer); type: cell-based; conditions: Homo sapiens
Method in brief: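 HCT-116 (KRAS G13D) cells, 30,000/well, pretreated 1 h with 1 μM Encorafenib to induce RAF dimers, washed, then dosed 1 h at 37° C with compound (10-point, top 10 μM, 1/2 log steps) in growth medium. pERK1/2 (T202/Y204) measured by AlphaLISA SureFire; absolute IC50 versus DMSO control.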

[2] = tested on: constitutive ERK phosphorylation in WiDr cells; assay: WiDr AlphaLISA SureFire pERK1/2 cellular assay; type: cell-based, human; conditions: Homo sapiens, WiDr cells, 2 hr, read-out: pERK WiDr (2 hr) Abs pIC50 (converted)
Protocol: The human HCT-116 colorectal carcinoma cell line (ATCC CCL-247) endogenously expresses the KRAS^G13D mutation, which leads to constitutive activation of the MAP kinase pathway and phosphorylation of ERK. […] Assay read outs took place 2 or 24 hours after dosing with compounds. On the first day, HCT-116 cells were harvested, resuspended in growth medium (McCoys5A with Glutamax (Life Technologies 36600021) and 10% heat-inactivated fetal bovine serum (Sigma F9665)), and counted. Cells were plated in 100 μl per well in each well of a 96-well culture dish (Sigma CLS3598) to a final density of 30,000 (2 hr read) or 15,000 (24 hr read) cells per well and incubated over night at 37° C. and 5% CO2. On day 2, the growth medium was exchanged for dosing medium (McCoys5A with Glutamax (Life Technologies 36600021) and 1% heat-inactivated fetal bovine serum (Sigma F9665)) and the cells were dosed with compounds to produce a 10-point dose response, where the top concentration was 1 μM and subsequent concentrations were at 1/3 log dilution intervals. A matched DMSO control was included. The cells were subsequently incubated for either 2 or 24 hours at 37° C. and 5% CO2. After incubation, media was removed and the cells were incubated with lysis buffer containing phosphatase inhibitors for 15 minutes at room temperature. Cell lysates were transferred to a 12 area 96 well white Optiplate™ (Perkin Elmer 6005569) and incubated with anti-mouse IgG acceptor beads, a biotinylated anti-ERK1/2 rabbit antibody recognizing both phosphorylated and non-phosphorylated ERK1/2, a mouse antibody targeted to the Thr202/Tyr204 epitope and recognizing phosphorylated ERK proteins only, and streptavidin-coated donor beads. The biotinylated antibody binds to the streptavidin-coated donor beads and the phopsho-ERK1/2 antibody binds to the acceptor beads. Plates were read on an EnVision reader (Perkin Elmer) and excitation of the beads at 680 nm with a laser induced the release of singlet oxygen molecules from the donor beads that trigger energy transfer to the acceptor beads in close proximity, producing a signal that can be measured at […]. Both antibodies bound to phosphorylated ERK proteins, bringing the donor and acceptor beads into close proximity. All data were analyzed using the Dotmatics or GraphPad Prism software packages. Inhibition of ERK phosphorylation was assessed by determination of the absolute IC50 value, which is defined as the concentration of compound required to decrease the level of phosphorylated ERK proteins by 50% when compared to DMSO control.
WiDr AlphaLISA SureFire pERK1/2 Cellular Assay
The human WiDr colorectal adenocarcinoma cell line (ATCC CCL-218) endogenously expresses the BRAF^V600E mutation, which leads to constitutive activation of the MAP kinase pathway and phosphorylation of ERK. […] The main procedure is essentially the same as for HCT-116 cells (above), with the following adjustments to the growth medium (Eagle's Minimum Essential Medium (Sigma M2279) with 1× Glutamax (Life Technologies 35050038), 1× Sodium-Pyruvate (Sigma S8636), and 10% heat-inactivated fetal bovine serum (Sigma F9665)), the dosing medium (Eagle's Minimum Essential Medium (Sigma M2279) with 1× Glutamax (Life Technologies 35050038), 1× Sodium-Pyruvate (Sigma S8636), and 1% heat-inactivated fetal bovine serum (Sigma F9665)), and the seeding densities (2 hr: 50,000 cells per well; 24 hr: 35,000 cells per well). Moreover, the compounds were dosed in 1/2 log dilution intervals with the top concentration of 10 μM.

[3] = Microsomal stability assay, mouse liver microsomes (MLM); type: in vitro ADME; conditions: 0.5 mg/mL protein, 1 μM substrate
Method in brief: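 Half-life and CLint come from the ln(% remaining)–time slope, with remaining compound quantified by LC-MS/MS after ice-cold solvent quench of timed samples. Incubations used 1 μM test compound and 0.5 mg·mL^−1 human or mouse liver microsomal protein at 37° C.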

[4] = HCT-116, HCT116 cells, dimer, 1 hr, read-out: pERK HCT116 dimer (1 hr) plC50 (converted)
[5] = HCT-116, HCT116 cells pre-dosed with 1 μM Encorafenib, 1 hr, read-out: pERK HCT116 dimer (1 hr) pIC50 (converted)

Structure (SMILES)	IC50 [1, 4] [nM]	IC50 ([2]; Abs) [nM]	microsomal CLint at 1 μM ([3]; 37° C.) [µL/min/mg]	IC50 ([1]; HCT-116, 1 h, read-out: pERK HCT116 dimer (1 hr) pIC50 (converted)) [nM]	IC50 ([2]; absolute IC50) [nM]	microsomal CLint at 1 μM [3] [µL/min/mg]	IC50 [1, 5] [nM]	MLM (CLint) ([3]; 37° C.) [µL/min/mg]
Cc1ccc(-c2c[nH]c(C3COc4ccc(Oc5ccnc6c5CCC(=O)N6)cc4C3)n2)s1 (stereo not drawn) [Compound 110]	50.1	70.8	55.5					
O=C1CCc2c(Oc3ccc4c(c3)CN(c3nc(-c5ccccc5)n[nH]3)CC4)ccnc2N1 [Compound 44, 5-[[2-(3-phenyl-1H-1,2,4-triazol-5-yl)-3,4-dihydro-1H-isoquinolin-7-yl]oxy]-3,4-dihydro-1H-1,8-naphthyridin-2-one hydrochloride]				288	355	11		
CC(=O)Nc1cc(Oc2ccc3c(c2)CC(c2nc(-c4ccccc4)c[nH]2)CO3)ccn1 (stereo not drawn) [Compound 156, N-[4-[3-(4-phenyl-1H-imidazol-2-yl)chroman-6-yl]oxy-2-pyridyl]acetamide]	52.5	132	152					
Cc1cc(-c2c[nH]c(C3COc4ccc(Oc5ccnc6c5CCC(=O)N6)cc4C3)n2)n(C)n1 (stereo not drawn) [Compound 106, 5-[3-[4-(2,5-dimethylpyrazol-3-yl)-1H-imidazol-2-yl]chroman-6-yl]oxy-3,4-dihydro-1H-1,8-naphthyridin-2-one]	123	589	17.1					
O=C(Nc1cc(Oc2ccc3c(c2)CC(c2nc(-c4ccccc4)c[nH]2)CO3)ccn1)C1CC1 (stereo not drawn) [Compound 45, N-[4-[3-(4-phenyl-1H-imidazol-2-yl)chroman-6-yl]oxy-2-pyridyl]cyclopropanecarboxamide]					66.1	277	89.1	
O=C(Nc1cc(Oc2ccc3c(c2)CC(c2nc(-c4ccccc4)c[nH]2)CO3)ccn1)C1CC1 (racemic) [Compound 136]	89.1	66.1						277
O=C(Nc1nccc(Oc2ccc3c(c2)CC(c2nc(-c4ccccc4)c[nH]2)CO3)n1)C1CC1 (stereo not drawn) [Compound 148, N-[4-[3-(4-phenyl-1H-imidazol-2-yl)chroman-6-yl]oxypyrimidin-2-yl]cyclopropanecarboxamide]	457	871	211					
O=C1CCc2c(Oc3ccc4c(c3)CC(c3nc(C5CCOCC5)c[nH]3)CO4)ccnc2N1 (stereo not drawn) [Compound 132, 5-[3-(4-tetrahydropyran-4-yl-1H-imidazol-2-yl)chroman-6-yl]oxy-3,4-dihydro-1H-1,8-naphthyridin-2-one]	427	832	9.3					
CN(C)c1ccc2[nH]c(C3COc4ccc(Oc5ccnc6c5CCC(=O)N6)cc4C3)nc2c1 (stereo not drawn) [Compound 26]					302	89.3	275	
O=C1CCc2c(Oc3ccc4c(c3)CN(C(=O)Nc3ccc(C(F)(F)F)cc3)CC4)ccnc2N1 [Compound 47]					117	32.5	64.6	
Cc1cc(-c2c[nH]c(C3COc4ccc(Oc5ccnc6c5CCC(=O)N6)cc4C3)n2)n(C2CC2)n1 (stereo not drawn) [Compound 114, 5-[3-[4-(2-cyclopropyl-5-methyl-pyrazol-3-yl)-1H-imidazol-2-yl]chroman-6-yl]oxy-3,4-dihydro-1H-1,8-naphthyridin-2-one]	363	1350	12.6					
O=C1CCc2c(Oc3ccc4c(c3)CC(c3nc(-c5cncc(C(F)F)c5)c[nH]3)CO4)ccnc2N1 (stereo not drawn) [Compound 105, 5-[3-[4-[5-(difluoromethyl)-3-pyridyl]-1H-imidazol-2-yl]chroman-6-yl]oxy-3,4-dihydro-1H-1,8-naphthyridin-2-one]	64.6	269	2.1					
c1ccc(-c2c[nH]c(C3COc4ccc(Oc5ccnc(Nc6ccccn6)c5)cc4C3)n2)cc1 (stereo not drawn) [Compound 140, 4-[3-(4-phenyl-1H-imidazol-2-yl)chroman-6-yl]oxy-N-(2-pyridyl)pyridin-2-amine]	2040	1260	81.1					
Cc1cc(-c2c[nH]c(C3COc4ccc(Oc5ccnc6c5CCC(=O)N6)cc4C3)n2)n(CC(F)(F)F)n1 (stereo not drawn) [Compound 126, 5-[3-[4-[5-methyl-2-(2,2,2-trifluoroethyl)pyrazol-3-yl]-1H-imidazol-2-yl]chroman-6-yl]oxy-3,4-dihydro-1H-1,8-naphthyridin-2-one]	245	1020	55.7					
CN1CCN(CC(=O)Nc2cc(Oc3ccc4c(c3)CC(c3nc(-c5ccccc5)c[nH]3)CO4)ccn2)CC1 (stereo not drawn) [Compound 146, 2-(4-methylpiperazin-1-yl)-N-[4-[3-(4-phenyl-1H-imidazol-2-yl)chroman-6-yl]oxy-2-pyridyl]acetamide]	170	398	89.7					
COc1ccsc1-c1c[nH]c(C2COc3ccc(Oc4ccnc5c4CCC(=O)N5)cc3C2)n1 (stereo not drawn) [Compound 123]	58.9	33.9	126					
Cn1nc(C(F)(F)F)cc1-c1c[nH]c(C2COc3ccc(Oc4ccnc5c4CCC(=O)N5)cc3C2)n1 (stereo not drawn) [Compound 107, 5-[3-[4-[2-methyl-5-(trifluoromethyl)pyrazol-3-yl]-1H-imidazol-2-yl]chroman-6-yl]oxy-3,4-dihydro-1H-1,8-naphthyridin-2-one]	57.5	209	12.5					
O=C(CN1CCCC1)Nc1cc(Oc2ccc3c(c2)CC(c2nc(-c4ccccc4)c[nH]2)CO3)ccn1 (stereo not drawn) [Compound 152]	275	219	259					
Cc1cc(-c2c[nH]c(C3COc4ccc(Oc5ccnc6c5CCC(=O)N6)cc4C3)n2)ccn1 (stereo not drawn) [Compound 117, 5-[3-[4-(2-methyl-4-pyridyl)-1H-imidazol-2-yl]chroman-6-yl]oxy-3,4-dihydro-1H-1,8-naphthyridin-2-one]	110	589	13.4					
CC1CC1C(=O)Nc1cc(Oc2ccc3c(c2)CC(c2nc(-c4ccccc4)c[nH]2)CO3)ccn1 (stereo not drawn) [Compound 157]	174	275						277
O=C1CCc2c(Oc3ccc4c(c3)CC(c3nc(-c5cncc(C(F)(F)F)c5)c[nH]3)CO4)ccnc2N1 (stereo not drawn) [Compound 103, 5-[3-[4-[5-(trifluoromethyl)-3-pyridyl]-1H-imidazol-2-yl]chroman-6-yl]oxy-3,4-dihydro-1H-1,8-naphthyridin-2-one]	107	269	4.4					
O=C1CCc2c(Oc3ccc4c(c3)CC(c3nc5cc(C(F)(F)F)ncc5[nH]3)CO4)ccnc2N1 (racemic) [Compound 32]					204	8.3	398	
